Laboratory results taken from patent US7479561B2, “4-(2,4-dichloro-5-methoxyphenyl)amino-6-methoxy-7-{[5-substituted-amino)methyl]-3-furyl}-3-quinolinecarbonitriles as kinase inhibitors” (Wyeth, priority 2004, dated 2009).
Where “and” joins values, the source holds several entries; their conditions need not be identical. Equal values may be shown once. Read-outs that look alike come from different tables or passages of the source.

Assays:
[1] = biological target: Rat2 fibroblasts stably transformed with v-Src/Hu c-Src fusion gene (Homo sapiens, UniProt P12931, cells depend on it, form not given); assay: Anchorage Independent Src-transformed Fibroblast Proliferation Assay; format: cell-based, rat
Sequence of Rat2 fibroblasts stably transformed with v-Src/Hu c-Src fusion gene (P12931 whole entry, stated change not applied, the tested form may be a part): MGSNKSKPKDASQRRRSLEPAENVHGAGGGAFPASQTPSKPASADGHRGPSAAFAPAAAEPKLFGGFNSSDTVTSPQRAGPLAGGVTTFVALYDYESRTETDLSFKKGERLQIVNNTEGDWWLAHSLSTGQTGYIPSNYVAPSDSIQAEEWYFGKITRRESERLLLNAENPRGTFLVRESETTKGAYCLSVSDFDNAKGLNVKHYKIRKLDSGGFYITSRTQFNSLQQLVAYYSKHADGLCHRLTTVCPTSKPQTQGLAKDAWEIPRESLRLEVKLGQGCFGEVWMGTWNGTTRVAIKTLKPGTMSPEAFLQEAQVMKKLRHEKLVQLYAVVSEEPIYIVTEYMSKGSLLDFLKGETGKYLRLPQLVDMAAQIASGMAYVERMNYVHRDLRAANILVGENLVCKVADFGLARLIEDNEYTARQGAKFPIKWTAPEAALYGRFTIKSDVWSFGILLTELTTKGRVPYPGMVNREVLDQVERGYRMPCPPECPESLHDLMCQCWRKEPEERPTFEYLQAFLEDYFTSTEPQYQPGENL
From the text: Rat2 fibroblasts stably transformed with a plasmid containing a CMV promotor controlled v-Src/Hu c-Src fusion gene in which the catalytic domain of human c-Src was inserted in place of the v-Src catalytic domain in the v-Src gene are used for the measurement of src dependent suspension growth.

HT29 cells = assay: HT29 Xenograft Assay; format: in vivo; conditions: 100 mg/kg oral gavage once a day for 14 days; at day 14; female nude mice
Experimental: All animal studies were conducted under an approved Institutional Animal Care and Use Committee protocol. HT29 cells were suspended to 50 million cells/ml and 0.2 ml of the cell suspension was injected into 6-7 weeks old female nude mice (Charles River, Wilmington, Mass.). […] At day 14 the T/C (growth of tumors in treated animals/growth of tumors in control animals) was 0.53.

KU812 Cells = assay: KU812 cell assay; format: cell-based; conditions: Homo sapiens
Experimental: (§1) The cell assays were performed as noted in Cancer Research 63, 375-381 (2003).

Wild type c-Abl = biological target: T1, Wild type c-Abl (Homo sapiens, UniProt P00519); assay: Abl Kinase Assay (LANCE FRET); format: biochemical; conditions: 100 μM ATP; read-out: c-Abl enzyme IC50
T1 construct: purchased Panvera P3049
T1 sequence (P00519 whole entry): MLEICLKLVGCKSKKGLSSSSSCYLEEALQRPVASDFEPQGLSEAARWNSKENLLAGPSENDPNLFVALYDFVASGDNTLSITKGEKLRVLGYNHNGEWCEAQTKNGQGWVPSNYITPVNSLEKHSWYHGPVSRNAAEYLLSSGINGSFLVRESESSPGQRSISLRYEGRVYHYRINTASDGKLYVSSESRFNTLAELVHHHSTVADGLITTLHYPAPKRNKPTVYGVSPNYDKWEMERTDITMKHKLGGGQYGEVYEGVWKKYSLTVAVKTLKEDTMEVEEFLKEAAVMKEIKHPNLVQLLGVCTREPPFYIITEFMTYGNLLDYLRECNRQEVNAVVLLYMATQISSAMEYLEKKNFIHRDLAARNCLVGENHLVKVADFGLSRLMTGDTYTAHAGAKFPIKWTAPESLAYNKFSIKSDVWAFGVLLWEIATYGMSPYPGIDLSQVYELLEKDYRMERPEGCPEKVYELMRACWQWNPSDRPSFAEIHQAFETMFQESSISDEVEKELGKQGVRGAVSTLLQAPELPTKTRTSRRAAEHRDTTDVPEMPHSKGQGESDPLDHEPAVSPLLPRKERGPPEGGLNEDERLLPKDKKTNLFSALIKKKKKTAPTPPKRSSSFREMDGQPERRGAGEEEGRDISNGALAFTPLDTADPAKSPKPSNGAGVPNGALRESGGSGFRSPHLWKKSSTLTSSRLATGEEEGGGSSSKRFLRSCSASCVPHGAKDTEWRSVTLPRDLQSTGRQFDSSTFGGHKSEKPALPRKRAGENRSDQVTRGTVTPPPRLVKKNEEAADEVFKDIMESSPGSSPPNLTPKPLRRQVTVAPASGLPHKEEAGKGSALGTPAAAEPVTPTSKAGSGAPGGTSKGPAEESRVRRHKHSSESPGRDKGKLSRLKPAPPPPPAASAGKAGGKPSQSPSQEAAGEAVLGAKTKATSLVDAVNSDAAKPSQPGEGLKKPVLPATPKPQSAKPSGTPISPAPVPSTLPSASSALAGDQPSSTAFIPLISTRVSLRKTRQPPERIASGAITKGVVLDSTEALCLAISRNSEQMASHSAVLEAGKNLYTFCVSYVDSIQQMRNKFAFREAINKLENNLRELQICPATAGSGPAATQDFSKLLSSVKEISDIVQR
Experimental: Wild type c-Abl was purchased from Panvera (P3049). Biotinylated peptide for the Abl kinase assay was obtained from Synpep (Biotin-NH-[…]-COOH). Homogeneous fluorescence resonance energy transfer kinase assays were performed using the europium/APC detection format (LANCE, Perkin Elmer). Abl enzyme (2.5 ng c-Abl) was mixed with biotinylated peptide (final concentration 2 μM), 50 mM Hepes (pH 7.5), 10 mM MgCl2, 20 ug/ml BSA, and 0.001% Brij-35 (Sigma). Compound was added with a final DMSO concentration of 1%, and incubated for ten minutes at 27° C. The kinase reaction was initiated by addition of ATP to a final concentration of 100 μM, and incubated for 30 minutes at 27° C. The reaction was stopped with EDTA at a final concentration of 30 mM EDTA/25 mM Hepes (pH 7.5)/10 μg/ml BSA. The mixture was combined with Eu-labeled phosphotyrosine antibody PT66 (Perkin Elmer, AD0068) and Streptavidin Surelight-APC (Perkin Elmer, CR130-100) in 50 mM Hepes (pH 7.5)/20 μg/ml BSA, and incubated for 30 minutes according to manufacturer's specifications. The reaction was monitored on a Wallac Victor with excitation at 340 nm and emission at 665 nm. Data was analyzed with the LSW data analysis plug-in for Excel (Microsoft).

K562 Cells = assay: K562 cell assay; format: cell-based; conditions: Homo sapiens
Experimental: as §1

[2] = biological target: T2, Recombinant human Src enzyme (Homo sapiens, UniProt P12931); assay: Src Kinase Assay (LANCE FRET); format: biochemical
T2 construct: purchased PanVera P3044
T2 sequence (P12931 whole entry): as the sequence (P12931 whole entry, stated change not applied, the tested form may be a part) above
Experimental: Recombinant human Src enzyme was obtained from PanVera (P3044). […] Homogeneous fluorescence resonance energy transfer kinase assays were performed using the europium/APC detection format (LANCE, Perkin Elmer). Src enzyme (10 ng) was mixed with biotinylated peptide (final concentration 2 μM), 50 mM Hepes (pH 7.5), 10 mM MgCl2, 20 ug/ml BSA, 0.001% Brij-35 (Sigma), 100 μM ATP, 1% DMSO. The kinase reaction was incubated for 70 min at 37° C. The reaction was stopped with EDTA at a final concentration of 30 mM EDTA/25 mM Hepes (pH 7.5)/10 μg/ml BSA. The mixture was combined with Eu-labeled anti-phosphotyrosine antibody PT66 (Perkin Elmer, AD0068) and Streptavidin Surelight-APC (Perkin Elmer, CR130-100) in 50 mM Hepes (pH 7.5)/20 μg/ml BSA, and incubated for 30 min according to manufacturer's specifications. […] Multiple entries for a given compound indicate that it was tested multiple times.

[3] = biological target: T3, Rat2 fibroblasts stably transformed with v-Src/Hu Lck fusion gene (Homo sapiens, UniProt P06239, cells depend on it, form not given); assay: Anchorage Independent Lck-transformed Fibroblast Proliferation Assay; format: cell-based, rat; conditions: suspension growth, MTS on Day 5; multiple entries = tested multiple times; read-out: Lck cells IC50
T3 construct: fused on or other part: v-Src of Rous sarcoma virus outside the catalytic domain (N-terminal unique/SH3/SH2 region and C-terminal tail); candidates are Schmidt-Ruppin A (P00524) and Prague C (P00526)
T3 sequence (P06239 whole entry, change not shown, the tested form may be a part): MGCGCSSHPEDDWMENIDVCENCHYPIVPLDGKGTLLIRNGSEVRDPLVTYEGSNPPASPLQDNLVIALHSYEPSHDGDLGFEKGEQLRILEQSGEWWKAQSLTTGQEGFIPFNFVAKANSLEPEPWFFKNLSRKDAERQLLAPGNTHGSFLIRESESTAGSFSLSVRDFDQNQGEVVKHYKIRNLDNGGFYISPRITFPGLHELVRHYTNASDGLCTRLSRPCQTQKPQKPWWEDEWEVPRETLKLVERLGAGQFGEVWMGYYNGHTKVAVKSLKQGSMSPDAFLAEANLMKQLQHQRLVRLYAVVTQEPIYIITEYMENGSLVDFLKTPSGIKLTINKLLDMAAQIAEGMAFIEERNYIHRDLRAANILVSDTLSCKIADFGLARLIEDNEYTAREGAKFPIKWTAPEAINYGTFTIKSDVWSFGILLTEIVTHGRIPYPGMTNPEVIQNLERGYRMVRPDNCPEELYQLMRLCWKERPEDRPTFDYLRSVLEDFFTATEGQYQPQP
From the text: Rat2 fibroblasts stably transformed with a plasmid containing a CMV promotor controlled v-Src/Hu Lck fusion gene in which the catalytic domain of human Lck was inserted in place of the v-Src catalytic domain in the v-Src gene are used for the measurement of src dependent suspension growth.

[4] = single value, read-out: Src Cell IC50
[5] = suspension growth, MTS on Day 5, multiple entries = tested multiple times, read-out: Src cells IC50
[6] = 100 μM ATP, multiple entries = tested multiple times, read-out: Src enzyme IC50
[7] = single value, read-out: Src Enzyme IC50

Row | Compound | melting point | IC50 [2, 6] | further results
1 | COc1cc(Nc2c(C#N)cnc3cc(-c4coc(CN5CCN(C)CC5)c4)c(OC)cc23)c(Cl)cc1Cl [Example 1] | 179 to 181 °C | 1 nM and 0.6 nM and 0.7 nM | GI50 [1, 4]: 15 nM; GI50 [1, 5]: 16 nM; T/C (growth of tumors in treated animals/growth of tumors in control animals) (HT29 cells): 0.53; IC50 (KU812 Cells): 6 nM; IC50 (Wild type c-Abl): 0.4 nM and 0.27 nM and 0.25 nM; IC50 (K562 Cells): 5.6 nM; IC50 [2, 7]: 0.8 nM
2 | COc1cc(Nc2c(C#N)cnc3cc(-c4coc(CN(C)C)c4)c(OC)cc23)c(Cl)cc1Cl [Example 2, 4-[(2,4-Dichloro-5-methoxyphenyl)amino]-6-methoxy-7-{5-[(dimethylamino)methyl]-3-furyl}-3-quinolinecarbonitrile] | 133 to 138 °C |  | GI50 [3]: 11 nM
3 | COc1cc(Nc2c(C#N)cnc3cc(-c4coc(CN5CCOCC5)c4)c(OC)cc23)c(Cl)cc1Cl [Example 3, 4-[(2,4-Dichloro-5-methoxyphenyl)amino]-6-methoxy-7-[5-(morpholin-4-ylmethyl)-3-furyl]-3-quinolinecarbonitrile] | 164 to 166 °C |  | 
4 | COc1cc(Nc2c(C#N)cnc3cc(-c4coc(CN5CCN(c6ccccc6)CC5)c4)c(OC)cc23)c(Cl)cc1Cl [Example 4, 4-[(2,4-Dichloro-5-methoxyphenyl)amino]-6-methoxy-7-{5-[(4-phenylpiperazin-1-yl)methyl]-3-furyl}-3-quinolinecarbonitrile] | 201 to 203 °C |  | GI50 [3]: 353 nM and 447 nM
5 | COc1ccc(N2CCN(Cc3cc(-c4cc5ncc(C#N)c(Nc6cc(OC)c(Cl)cc6Cl)c5cc4OC)co3)CC2)c(OC)c1 [Example 5, 4-[(2,4-Dichloro-5-methoxyphenyl)amino]-6-methoxy-7-(5-{[4-(2,4-dimethoxyphenyl)piperazin-1-yl]methyl}-3-furyl)-3-quinolinecarbonitrile] | 223 to 225 °C | 3.5 nM and 3.1 nM | GI50 [3]: 246 nM and 203 nM and 239 nM; GI50 [1, 5]: 19 nM and 17 nM
6 | COc1cc(Nc2c(C#N)cnc3cc(-c4coc(CN(C)CCN(C)C)c4)c(OC)cc23)c(Cl)cc1Cl [Example 27, 4-[(2,4-dichloro-5-methoxyphenyl)amino]-7-(5-{[[2-(dimethylamino)ethyl](methyl)amino]methyl}-3-furyl)-6-methoxyquinoline-3-carbonitrile] |  | 3.2 nM and 2.5 nM | 
7 | COc1cc(Nc2c(C#N)cnc3cc(-c4coc(CN5CCN(C(C)C)CC5)c4)c(OC)cc23)c(Cl)cc1Cl [Example 28, 4-[(2,4-dichloro-5-methoxyphenyl)amino]-7-{5-[(4-isopropylpiperazin-1-yl)methyl]-3-furyl}-6-methoxyquinoline-3-carbonitrile] |  | 1 nM and 0.7 nM | 
8 | COc1cc(Nc2c(C#N)cnc3cc(-c4coc(CN5CCCN(C)CC5)c4)c(OC)cc23)c(Cl)cc1Cl [Example 29, 4-[(2,4-dichloro-5-methoxyphenyl)amino]-6-methoxy-7-{5-[(4-methyl-1,4-diazepan-1-yl)methyl]-3-furyl}quinoline-3-carbonitrile] |  | 1.3 nM and 1 nM | 
9 | COCCN1CCN(Cc2cc(-c3cc4ncc(C#N)c(Nc5cc(OC)c(Cl)cc5Cl)c4cc3OC)co2)CC1 [Example 30, 4-[(2,4-dichloro-5-methoxyphenyl)amino]-6-methoxy-7-(5-{[4-(2-methoxyethyl)piperazin-1-yl]methyl}-3-furyl)quinoline-3-carbonitrile] |  | 1.9 nM and 1.7 nM | 
10 | COc1cc(Nc2c(C#N)cnc3cc(-c4coc(CN5CCN(CCO)CC5)c4)c(OC)cc23)c(Cl)cc1Cl [Example 31, 4-[(2,4-dichloro-5-methoxyphenyl)amino]-7-(5-{[4-(2-hydroxyethyl)piperazin-1-yl]methyl}-3-furyl)-6-methoxyquinoline-3-carbonitrile] |  | 1.9 nM and 1.8 nM | 
11 | COCCN(C)Cc1cc(-c2cc3ncc(C#N)c(Nc4cc(OC)c(Cl)cc4Cl)c3cc2OC)co1 [Example 32, 4-[(2,4-dichloro-5-methoxyphenyl)amino]-6-methoxy-7-(5-{[(2-methoxyethyl)(methyl)amino]methyl}-3-furyl)quinoline-3-carbonitrile] |  | 2.9 nM and 2.6 nM | 
12 | CCN(CC)CCCN1CCN(Cc2cc(-c3cc4ncc(C#N)c(Nc5cc(OC)c(Cl)cc5Cl)c4cc3OC)co2)CC1 [Example 33, 4-[(2,4-dichloro-5-methoxyphenyl)amino]-7-[5-({4-[3-(diethylamino)propyl]piperazin-1-yl}methyl)-3-furyl]-6-methoxyquinoline-3-carbonitrile] |  | 2 nM | 
13 | COc1cc(Nc2c(C#N)cnc3cc(-c4coc(CN5CCN(Cc6ccncc6)CC5)c4)c(OC)cc23)c(Cl)cc1Cl [Example 34, 4-[(2,4-dichloro-5-methoxyphenyl)amino]-6-methoxy-7-(5-{[4-(pyridin-4-ylmethyl)piperazin-1-yl]methyl}-3-furyl)quinoline-3-carbonitrile] |  | 2.5 nM and 3 nM | 
14 | COc1cc(Nc2c(C#N)cnc3cc(-c4coc(CN5CCN(c6c(C)cccc6C)CC5)c4)c(OC)cc23)c(Cl)cc1Cl [Example 35, 4-[(2,4-dichloro-5-methoxyphenyl)amino]-7-(5-{[4-(2,6-dimethylphenyl)piperazin-1-yl]methyl}-3-furyl)-6-methoxyquinoline-3-carbonitrile] |  | 3.2 nM and 5.6 nM | 
15 | c1ccsc1 [thiophene, reference compound] |  |  | GI50 [1, 4]: 94 nM; IC50 [2, 7]: 3.7 nM
